The values below are quoted from earlier work in article PMC6276840, “Challenges and Opportunities of Nanotechnology as Delivery Platform for Tocotrienols in Cancer Therapy” (Frontiers in Pharmacology, 2018).

The term IC50 denotes the concentration needed to halve the response being measured.

Details of series [1]: method as in Yap et al., 2003. The conditions noted are these: rats; ref Yap et al., 2003.
Details of series [2]: method as in Lorusso et al., 2007; Rafiyath et al., 2012; Rom et al., 2014. To be noted: when delivered in liposomes; ref Lorusso et al., 2007; Rafiyath et al., 2012; Rom et al., 2014.
For series [3], the system named is MCF-7. To be noted: MCF-7 cells; ref Alayoubi et al., 2013.
The test system of series [4] is MDA-MB-231. The conditions noted are these: MDA-MB-231 cells; ref Alayoubi et al., 2013.

Molecules are shown by their SMILES.

Take `CC(C)=CCC/C(C)=C/CC/C(C)=C/CC[C@]1(C)CCc2c(C)c(O)c(C)c(C)c2O1` [α-tocotrienol]: the absolute oral bioavailability result in series [1] is reported as “less than 30%”.
Regarding `COc1cccc2c1C(=O)c1c(O)c3c(c(O)c1C2=O)C[C@@](O)(C(=O)CO)C[C@@H]3O[C@H]1C[C@H](N)[C@H](O)[C@H](C)O1` [doxorubicin], in series [2], the cardiotoxicity entry is “markedly reduced”; the “hematological toxicity and palmar–plantar erythrodysesthesia” value was “increased incidence”.
As for `CCC(C)(C)C(=O)O[C@H]1C[C@@H](C)C=C2C=C[C@H](C)[C@H](CC[C@@H]3C[C@@H](O)CC(=O)O3)[C@H]21` [simvastatin], the IC50 in series [3] was 19 µM; in series [4], 8 µM.
Consider `CC(C)=CCC/C(C)=C/CC/C(C)=C/CC[C@]1(C)CCc2cc(O)cc(C)c2O1` [δ-tocotrienol], for which the absolute oral bioavailability result in series [1] is “less than 10%”.
On to `CC(C)=CCC/C(C)=C/CC/C(C)=C/CC[C@]1(C)CCc2cc(O)c(C)c(C)c2O1` [γ-tocotrienol], for which the absolute oral bioavailability result in series [1] was “less than 10%”.
